From ChEMBL document CHEMBL4004875, “Synthesis of bulky-tailed sulfonamides incorporating pyrido[2,3-d][1,2,4]triazolo[4,3-a]pyrimidin-1(5H)-yl) moieties and evaluation of their carbonic anhydrases I, II, IV and IX inhibitory effects” (Bioorg Med Chem, 2017)
The source made the active and inactive calls. The calls are words filed in the database; no cut-off is given here.

Assays:
Carbonic anhydrase 4 [1] = biological target: T1, Carbonic anhydrase 4 (Homo sapiens, UniProt P22748); assay: Inhibition of recombinant human membrane-associated carbonic anhydrase 4 assessed as inhibition of CO2 hydration preincubated for 15 mins prior to testing by phenol red based stopped-flow CO2 hydration assay
T1 sequence (P22748 whole entry): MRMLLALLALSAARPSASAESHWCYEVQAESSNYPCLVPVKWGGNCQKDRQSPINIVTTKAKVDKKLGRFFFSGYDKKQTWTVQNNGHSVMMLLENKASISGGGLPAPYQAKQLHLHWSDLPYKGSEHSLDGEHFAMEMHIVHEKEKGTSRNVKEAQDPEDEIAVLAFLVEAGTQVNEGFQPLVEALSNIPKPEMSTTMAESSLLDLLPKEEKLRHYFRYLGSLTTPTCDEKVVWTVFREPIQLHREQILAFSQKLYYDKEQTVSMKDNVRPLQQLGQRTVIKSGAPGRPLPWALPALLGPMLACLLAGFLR

Carbonic anhydrase 9 = Carbonic anhydrase 9 (Homo sapiens, UniProt Q16790)
Description: Inhibition of recombinant human tumor-associated carbonic anhydrase 9 assessed as inhibition of CO2 hydration preincubated for 15 mins prior to testing by phenol red based stopped-flow CO2 hydration assay

Carbonic anhydrase 1 [2] = biological target: T2, Carbonic anhydrase 1 (Homo sapiens, UniProt P00915); assay: Inhibition of recombinant human cytosolic carbonic anhydrase 1 assessed as inhibition of CO2 hydration up to 100 uM preincubated for 15 mins prior to testing by phenol red based stopped-flow CO2 hydration assay
Target sequence in this assay (P00915 2-261 limits assumed): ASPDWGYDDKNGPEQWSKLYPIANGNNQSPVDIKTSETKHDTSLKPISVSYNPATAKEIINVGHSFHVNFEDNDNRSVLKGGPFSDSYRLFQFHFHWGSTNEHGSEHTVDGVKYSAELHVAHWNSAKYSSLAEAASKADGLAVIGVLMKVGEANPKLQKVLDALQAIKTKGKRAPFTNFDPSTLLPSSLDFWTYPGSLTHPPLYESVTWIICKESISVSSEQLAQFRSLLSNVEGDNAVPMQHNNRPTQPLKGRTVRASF

Carbonic anhydrase 4 [3] = biological target: T1, Carbonic anhydrase 4; assay: Inhibition of recombinant human membrane-associated carbonic anhydrase 4 assessed as inhibition of CO2 hydration up to 100 uM preincubated for 15 mins prior to testing by phenol red based stopped-flow CO2 hydration assay
Carbonic anhydrase 1 [4] = biological target: T2, Carbonic anhydrase 1; assay: Inhibition of recombinant human cytosolic carbonic anhydrase 1 assessed as inhibition of CO2 hydration preincubated for 15 mins prior to testing by phenol red based stopped-flow CO2 hydration assay
Target sequence in this assay (P00915 whole entry): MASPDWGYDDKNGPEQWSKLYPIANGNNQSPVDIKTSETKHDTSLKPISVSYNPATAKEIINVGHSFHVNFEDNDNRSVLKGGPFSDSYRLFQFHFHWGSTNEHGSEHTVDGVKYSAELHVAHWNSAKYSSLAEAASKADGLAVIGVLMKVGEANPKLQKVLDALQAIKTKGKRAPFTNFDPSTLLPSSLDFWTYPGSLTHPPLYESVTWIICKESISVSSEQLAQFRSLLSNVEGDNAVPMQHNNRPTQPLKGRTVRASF

Carbonic anhydrase 2 = Carbonic anhydrase 2 (Homo sapiens, UniProt P00918); assay: Inhibition of recombinant human carbonic anhydrase 2 assessed as inhibition of CO2 hydration preincubated for 15 mins prior to testing by phenol red based stopped-flow CO2 hydration assay

Row | Structure (SMILES) | Ki (Carbonic anhydrase 9) | also measured
1 | Cc1ccc(-c2cc(C(F)(F)F)nn2-c2ccc(S(N)(=O)=O)cc2)cc1 [CELECOXIB] | 20 nM | Ki (Carbonic anhydrase 4 [1]): 290 nM
2 | CCOC(=O)c1nn(-c2ccc(S(N)(=O)=O)cc2)c2nc3nc(-c4ccc(Cl)cc4)cc(-c4ccc(Cl)cc4)c3c(=O)n12 | 1460 nM | 
3 | CCOC(=O)c1nn(-c2ccc(S(N)(=O)=O)cc2)c2nc3nc(-c4ccc(Cl)cc4)cc(-c4ccc([N+](=O)[O-])cc4)c3c(=O)n12 | 2460 nM | 
4 | CC(=O)c1nn(-c2ccc(S(N)(=O)=O)cc2)c2nc3nc(-c4ccc(Cl)cc4)cc(-c4ccc(Cl)cc4)c3c(=O)n12 | 350 nM | 
5 | COc1ccc(-c2cc(-c3ccc(Cl)cc3)nc3nc4n(-c5ccc(S(N)(=O)=O)cc5)nc(C(C)=O)n4c(=O)c23)cc1 | 330 nM | 
6 | CCOC(=O)c1nn(-c2ccc(S(N)(=O)=O)cc2)c2nc3nc(-c4ccc(Cl)cc4)cc(-c4ccccc4)c3c(=O)n12 | 3260 nM | inhibition (Carbonic anhydrase 1 [2]): inactive
7 | CC(=O)c1nn(-c2ccc(S(N)(=O)=O)cc2)c2nc3nc(-c4cccs4)cc(-c4ccc(Cl)cc4)c3c(=O)n12 | 990 nM | inhibition (Carbonic anhydrase 1 [2]): inactive
8 | CC(=O)c1nn(-c2ccc(S(N)(=O)=O)cc2)c2nc3nc(-c4cccs4)cc(-c4ccc([N+](=O)[O-])cc4)c3c(=O)n12 | 160 nM | 
9 | CCOC(=O)c1nn(-c2ccc(S(N)(=O)=O)cc2)c2nc3nc(-c4ccc(Cl)cc4)cc(-c4ccc(OC)cc4)c3c(=O)n12 | 1450 nM | inhibition (Carbonic anhydrase 4 [3]): inactive
10 | CCOC(=O)c1nn(-c2ccc(S(N)(=O)=O)cc2)c2nc3nc(-c4cccs4)cc(-c4ccc([N+](=O)[O-])cc4)c3c(=O)n12 | 1100 nM | 
11 | CC(=O)c1nn(-c2ccc(S(N)(=O)=O)cc2)c2nc3nc(-c4ccc(Cl)cc4)cc(-c4ccc(F)cc4)c3c(=O)n12 | 250 nM | 
12 | CC(=O)c1nn(-c2ccc(S(N)(=O)=O)cc2)c2nc3nc(-c4ccc(Cl)cc4)cc(-c4ccccc4)c3c(=O)n12 | 180 nM | 
13 | CC(=O)c1nn(-c2ccc(S(N)(=O)=O)cc2)c2nc3nc(-c4ccc(Cl)cc4)cc(-c4ccc([N+](=O)[O-])cc4)c3c(=O)n12 | 330 nM | 
14 | CCOC(=O)c1nn(-c2ccc(S(N)(=O)=O)cc2)c2nc3nc(-c4cccs4)cc(-c4ccc(OC)cc4)c3c(=O)n12 | 380 nM | 
15 | CC(=O)c1nn(-c2ccc(S(N)(=O)=O)cc2)c2nc3nc(-c4cccs4)cc(-c4ccccc4)c3c(=O)n12 | 1120 nM | Ki (Carbonic anhydrase 1 [4]): 6780 nM; Ki (Carbonic anhydrase 2): 730 nM; Ki (Carbonic anhydrase 4 [1]): 4790 nM
16 | CCOC(=O)c1nn(-c2ccc(S(N)(=O)=O)cc2)c2nc3nc(-c4cccs4)cc(-c4ccc(F)cc4)c3c(=O)n12 | 1620 nM | inhibition (Carbonic anhydrase 1 [2]): inactive
17 | CCOC(=O)c1nn(-c2ccc(S(N)(=O)=O)cc2)c2nc3nc(-c4cccs4)cc(-c4ccc(Cl)cc4)c3c(=O)n12 | 390 nM | 
18 | CC(=O)c1nn(-c2ccc(S(N)(=O)=O)cc2)c2nc3nc(-c4cccs4)cc(-c4ccc(F)cc4)c3c(=O)n12 | 190 nM | 
19 | COc1ccc(-c2cc(-c3cccs3)nc3nc4n(-c5ccc(S(N)(=O)=O)cc5)nc(C(C)=O)n4c(=O)c23)cc1 | 420 nM | 
20 | CCOC(=O)c1nn(-c2ccc(S(N)(=O)=O)cc2)c2nc3nc(-c4ccc(Cl)cc4)cc(-c4ccc(F)cc4)c3c(=O)n12 | 3240 nM | 
21 | CCOC(=O)c1nn(-c2ccc(S(N)(=O)=O)cc2)c2nc3nc(-c4cccs4)cc(-c4ccccc4)c3c(=O)n12 | 1900 nM | inhibition (Carbonic anhydrase 4 [3]): inactive
